Experimental data: US12605374B2, “Methods for drug screening and compositions useful for the inhibition of cell proliferation and/or cell survival” (The Brigham and Women's Hospital, Inc., priority 2019, dated 2026)

Columns and labels:
[1] = biological target: T1, recombinant human Topoisomerase I (Homo sapiens, UniProt P11387); assay: Topoisomerase I and DNA binding gel electrophoresis assay; format: biochemical; conditions: concentrations up to 100 mM (so in the source), versus DMSO
T1 construct: purchased TopoGEN, Inc. TG2005H
T1 sequence (P11387 1-765): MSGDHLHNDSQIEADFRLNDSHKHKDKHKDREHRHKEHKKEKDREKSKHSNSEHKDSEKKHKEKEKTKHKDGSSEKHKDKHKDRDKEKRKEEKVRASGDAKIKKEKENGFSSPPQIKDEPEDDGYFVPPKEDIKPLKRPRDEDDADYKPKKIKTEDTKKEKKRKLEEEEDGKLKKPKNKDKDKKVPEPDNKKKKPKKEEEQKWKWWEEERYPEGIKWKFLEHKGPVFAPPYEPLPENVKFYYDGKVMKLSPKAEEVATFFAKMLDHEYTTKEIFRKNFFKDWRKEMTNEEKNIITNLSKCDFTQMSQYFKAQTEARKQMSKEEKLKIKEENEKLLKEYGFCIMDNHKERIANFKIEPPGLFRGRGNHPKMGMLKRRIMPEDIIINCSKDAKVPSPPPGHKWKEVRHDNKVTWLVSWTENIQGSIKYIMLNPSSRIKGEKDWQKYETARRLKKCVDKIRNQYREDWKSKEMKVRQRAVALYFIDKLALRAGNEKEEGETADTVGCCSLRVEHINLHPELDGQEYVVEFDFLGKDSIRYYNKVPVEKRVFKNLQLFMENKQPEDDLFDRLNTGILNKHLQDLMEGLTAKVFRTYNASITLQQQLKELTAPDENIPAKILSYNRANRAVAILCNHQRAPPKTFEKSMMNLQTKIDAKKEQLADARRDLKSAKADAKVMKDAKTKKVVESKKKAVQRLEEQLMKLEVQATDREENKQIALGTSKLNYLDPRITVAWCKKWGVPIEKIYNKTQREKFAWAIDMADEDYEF
Protocol: FIG. 12: Topoisomerase I and DNA binding assay for DA5. The effect of DA5 on Topoisomerase-mediated DNA unwinding is measured through a gel electrophoresis assay (see Methods).
0.5 ug of pHOT-1 supercoiled DNA (TopoGEN, Inc. TG2030-2) was combined with 2× Topoisomerase I assay buffer (50 mM Tris-HCL (ph7.9), 1 mM EDTA, 1 mM DTT, 20% (v/v) glycerol, 50 mM NaCl), nuclease free water and either DMSO vehicle control, m-AMSA positive control (100-1000 uM; TopoGEN, Inc. […] TG2005H) was added to treatments corresponding to lanes 3-12 with 2 ul of dilution buffer (5 mM Tris-HCL (pH 7.9), 1 mM EDTA, 1 mM DTT, 50% (v/v) glycerol, 500 mM NaCl) added to control treatments lacking enzyme (lanes 2, 13 and 14). Reactions were mixed and incubated at 37° C. for 30 minutes. Reactions were terminated with the addition of 20 ul nuclease free water and 50 ul of 1-butanol (water-saturated) followed by vortex and centrifugation at 13,000 rpm for 1 minute. The lower aqueous phase was removed and added to 50 ul chloroform/isoamyl alcohol (24/1) and 50 ul of 2×STEB buffer (40% (w/v) sucrose, 100 mM Tris-HCL (pH 8), 1 mM EDTA, 0.5 mg/ml bromophenol blue) followed by mixing and centrifugation at 13,000 rpm for 1 minute. […] The gel was stained with ethidium bromide for 15 minutes followed by de-staining in distilled water for 10 minutes. Gels were exposed and images acquired using the iBrightFL1000 gel documentation system (Invitrogen).

zebrafish embryos = assay: Respiration rate analysis (Seahorse XF24 oxygen consumption); format: in vivo; conditions: embryos from 5 hpf, versus DMSO control
Protocol: Analysis of embryonic respiration was performed using a Seahorse XF24 analyzer (Agilent). Embryos at 5 hours post fertilization were arrayed in E3 media at 3 per well in a 24-well standard Seahorse plate using an isolating mesh (as in Stackley et al^72). Each plate contained four replicates of each indicated compound of interest, as well as 4 control wells receiving the equivalent DMSO as contained in the indicated compound solution, and 4 wells with no embryos present to act as a baseline for oxygen content of the media. The sample baseline was read for 5 cycles (3 minute mix, 2 minute wait, 5 minute measure), then compounds were introduced in a single 40-cycle injection phase (3 minute mix, 2 minute wait, 5 minute measure). Measurement data were exported using Seahorse software (Agilent) and averaged over 3 experimental days.

CC[C@@]1(O)C(=O)OCc2c1cc1n(c2=O)Cc2cc3ccccc3nc2-1 [Camptothecin, reference compound]
effect on Topoisomerase-mediated DNA unwinding (gel electrophoresis) [1]: dose-dependent effect on the amount of circular DNA present

CC[C@@H]1/C=C/C=C/C[C@H](C)[C@H](O)[C@](C)(O)C(=O)[C@H](C)[C@@H](O)[C@H](C)C(=O)[C@H](C)[C@@H](O)[C@H](C)/C=C/C(=O)O[C@H]2[C@@H](C)[C@@H](CC1)O[C@@]1(CC[C@@H](C)[C@@H](C[C@H](C)O)O1)[C@@H]2C [oligomycin A, reference compound]
respiration rate (oxygen consumption rate) (zebrafish embryos): exponential reduction in respiration rate stabilizing at a baseline rate
